Assay results reported in article PMC8105715, “Modeling of full-length Piezo1 suggests importance of the proximal N-terminus for dome structure” (Biophysical Journal, 2021).

Target: T1, human Piezo1 (Homo sapiens, UniProt Q92508)
T1 construct: stably expressed in HEK 293 TREx cells, tetracycline-inducible (P1 HEK TREx); homotrimer
Assay: fura-2 intracellular Ca2+ plate-reader assay, inhibition of Yoda1-evoked response
Assay type: cell-based
Details: unreliable (estimated; limited solubility); 5 uM Yoda1; cells pretreated 30 min at 37 C with cholesterol-MbetaCD complex; nominal bath concentration; site not shown, may act through membrane; pH 7.4

T1 sequence (Q92508 whole entry): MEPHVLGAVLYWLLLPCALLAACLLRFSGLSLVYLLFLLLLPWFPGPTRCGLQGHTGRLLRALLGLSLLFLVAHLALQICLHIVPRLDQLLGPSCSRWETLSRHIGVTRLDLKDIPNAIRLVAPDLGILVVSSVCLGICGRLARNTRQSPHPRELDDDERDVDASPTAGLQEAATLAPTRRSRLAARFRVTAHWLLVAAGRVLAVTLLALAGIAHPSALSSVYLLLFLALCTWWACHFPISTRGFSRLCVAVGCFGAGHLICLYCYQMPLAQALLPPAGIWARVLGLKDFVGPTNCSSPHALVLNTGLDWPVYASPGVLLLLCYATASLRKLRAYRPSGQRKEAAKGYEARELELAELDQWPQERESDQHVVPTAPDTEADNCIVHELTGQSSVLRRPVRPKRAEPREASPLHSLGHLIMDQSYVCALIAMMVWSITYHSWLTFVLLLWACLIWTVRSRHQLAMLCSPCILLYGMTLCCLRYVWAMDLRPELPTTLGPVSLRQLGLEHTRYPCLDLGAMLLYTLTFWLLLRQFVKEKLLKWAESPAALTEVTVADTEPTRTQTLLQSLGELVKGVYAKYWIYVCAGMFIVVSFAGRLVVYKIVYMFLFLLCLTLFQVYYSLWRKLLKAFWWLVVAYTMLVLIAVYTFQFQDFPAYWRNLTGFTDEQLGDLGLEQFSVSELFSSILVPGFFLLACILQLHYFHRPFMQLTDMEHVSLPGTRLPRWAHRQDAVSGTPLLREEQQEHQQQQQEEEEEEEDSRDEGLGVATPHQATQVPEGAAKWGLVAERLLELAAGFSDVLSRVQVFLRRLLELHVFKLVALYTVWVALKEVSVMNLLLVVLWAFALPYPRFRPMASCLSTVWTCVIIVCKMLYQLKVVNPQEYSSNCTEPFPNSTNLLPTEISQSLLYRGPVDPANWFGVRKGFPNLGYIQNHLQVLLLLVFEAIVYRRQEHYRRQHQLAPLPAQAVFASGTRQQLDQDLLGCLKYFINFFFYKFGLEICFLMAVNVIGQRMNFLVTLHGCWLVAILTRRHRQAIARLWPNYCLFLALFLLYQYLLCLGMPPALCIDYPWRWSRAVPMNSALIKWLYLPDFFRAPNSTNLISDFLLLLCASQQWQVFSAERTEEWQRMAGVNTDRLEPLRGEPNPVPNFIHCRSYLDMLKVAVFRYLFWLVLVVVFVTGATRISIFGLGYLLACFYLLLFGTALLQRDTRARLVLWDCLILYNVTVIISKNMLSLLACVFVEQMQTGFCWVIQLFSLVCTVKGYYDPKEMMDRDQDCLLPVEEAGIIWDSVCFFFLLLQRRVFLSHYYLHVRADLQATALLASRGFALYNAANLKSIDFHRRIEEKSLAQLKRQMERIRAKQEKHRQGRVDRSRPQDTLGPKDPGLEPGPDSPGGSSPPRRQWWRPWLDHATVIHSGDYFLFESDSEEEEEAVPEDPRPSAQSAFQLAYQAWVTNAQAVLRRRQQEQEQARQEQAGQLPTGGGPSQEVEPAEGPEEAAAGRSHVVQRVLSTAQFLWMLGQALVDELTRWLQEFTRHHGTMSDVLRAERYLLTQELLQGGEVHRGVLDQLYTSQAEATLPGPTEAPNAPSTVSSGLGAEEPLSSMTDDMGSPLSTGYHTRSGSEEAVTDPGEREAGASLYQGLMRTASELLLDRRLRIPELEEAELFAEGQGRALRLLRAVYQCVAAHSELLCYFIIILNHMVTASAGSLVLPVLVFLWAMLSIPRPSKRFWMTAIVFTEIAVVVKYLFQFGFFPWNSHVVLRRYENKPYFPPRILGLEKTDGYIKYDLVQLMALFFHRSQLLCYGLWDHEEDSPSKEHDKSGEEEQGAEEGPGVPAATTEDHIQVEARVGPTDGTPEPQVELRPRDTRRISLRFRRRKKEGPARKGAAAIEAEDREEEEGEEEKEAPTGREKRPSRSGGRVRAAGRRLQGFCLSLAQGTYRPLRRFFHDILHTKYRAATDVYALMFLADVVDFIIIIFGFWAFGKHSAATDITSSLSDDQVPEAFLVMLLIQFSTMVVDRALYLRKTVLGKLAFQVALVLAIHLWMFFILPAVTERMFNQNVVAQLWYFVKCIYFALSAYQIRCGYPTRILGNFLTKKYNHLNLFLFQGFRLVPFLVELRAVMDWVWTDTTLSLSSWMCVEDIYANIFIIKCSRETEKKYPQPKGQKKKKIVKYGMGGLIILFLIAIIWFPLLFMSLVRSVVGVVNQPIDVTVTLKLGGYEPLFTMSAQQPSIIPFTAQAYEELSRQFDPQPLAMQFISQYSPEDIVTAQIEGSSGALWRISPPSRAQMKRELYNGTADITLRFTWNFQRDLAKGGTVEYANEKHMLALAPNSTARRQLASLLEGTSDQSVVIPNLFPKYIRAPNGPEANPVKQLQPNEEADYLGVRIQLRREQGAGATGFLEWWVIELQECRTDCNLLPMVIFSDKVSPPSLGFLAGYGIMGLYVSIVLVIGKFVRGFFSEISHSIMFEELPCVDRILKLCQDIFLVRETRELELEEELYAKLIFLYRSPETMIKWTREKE

- IC50: 150 µM
Compound: CC(C)CCC[C@@H](C)[C@H]1CC[C@H]2[C@@H]3CC=C4C[C@@H](O)CC[C@]4(C)[C@H]3CC[C@]12C [cholesterol]
